Here are results for 17 molecules from PubChem BioAssay (NCI).

Holding throughout (assay): DTP human tumour cell line panel, 48 h
In assay [1] the test system is U251 CNS.
The subject of assay [2] is HCT-116 colon.
In assay [3] the test system is ACHN renal.
In assay [4] the test system is SNB-19 CNS.
For assay [5], the system named is CCRF-CEM leukemia.
Assay [6] concerns NCI/ADR-RES ovarian.
For assay [7], the system named is HL-60(TB) leukemia.
Assay [8] deals with NCI-H226 lung.
Assay [9] has as its system UO-31 renal.
Assay [10] deals with K-562 leukemia.

Values joined by “and” are separate entries in the source; they are usually repeats but may differ in a detail not shown here. Equal values may be shown once.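 Protocol summary: plate cells (96-well), add compound at 5 concentrations, incubate 48 h, interpolate endpoints linearly. Abbreviation: GI50, concentration required for 50% inhibition of growth. Definition used: TGI = concentration required for complete inhibition of growth.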 Some results are limits rather than exact numbers.

As to `CCN1C(=O)N(CC)C2C1NN=c1s/c(=C3\C(=O)Nc4ccccc43)c(=O)n12` (stereo not drawn), the GI50 (usually the concentration at which growth is held to half of that of the control) in [1] is 0.556 µM; in assay [2], 0.485 µM; in [3], 0.606 µM; in assay [4], 0.633 µM; in [5] it was 0.385 µM; in [6], 5.67 µM. Also, the GI50 in assay [7] is 0.296 µM; in assay [8] it was 0.544 µM; in assay [9], 1.09 µM; in [10], 0.343 µM. For the same molecule, the TGI – broadly, the concentration at which net growth stops – was 21 µM in assay [1]; more than 61.6 µM in [2]; more than 47.6 µM in assay [3]; 32.3 µM in [4]; 27.1 µM in [5]; more than 100 µM in assay [6]. The TGI was 0.91 µM in [7], 55.5 µM in [8], more than 100 µM in assay [9] and more than 100 µM in [10].
For `N[C@H]1CCC[C@@H](O)C1O` (stereo partly drawn), the TGI in assay [1], in assay [2], in [3], in assay [4], in assay [5] and in assay [6] was more than 100 µM throughout. For the same molecule, the TGI in assay [7], in assay [8], in assay [9] and in assay [10] was more than 100 µM in each case.
Turning to `O=C1c2ccccc2C(=O)c2c1ccc1conc21`, the TGI in assay [1] was found to be 3.14 µM; in assay [2], 3.51 µM; in assay [3] it was 3.75 µM; in assay [4] it was 11.5 µM; in [5], 71.1 µM; in assay [6], 8.45 µM. Also, the TGI came to 4.16 µM in [7], 14.9 µM in [8], 9.53 µM in [9] and 42.5 µM in [10].
For the molecule `CN(C)S(=O)(=O)c1cccc(C(=O)Nc2nc(-c3ccc(F)c(F)c3)cs2)c1`, the GI50 in assay [1] was 11.5 µM; in assay [2] it was 7.62 µM; in assay [3] it was 10.5 µM; in assay [4] it was 35.4 µM; in assay [5] it was 10.7 µM; in assay [6], 5.32 µM. Moreover, the GI50 in [7] was 6.08 µM; in [8], 9.32 µM; in [9], 9.09 µM; in assay [10], 5.1 µM. The TGI in assay [1] was more than 74 µM; in [2], more than 100 µM; in [3], more than 100 µM; in [4] it was more than 100 µM; in assay [5], more than 100 µM; in assay [6] it was more than 100 µM. The TGI in [7] was more than 100 µM; in assay [8] it was 98.3 µM; in assay [9] it was more than 100 µM; in assay [10], more than 100 µM.
Consider `Nc1[nH]nc(Nc2ccccc2)c1-c1nc2ccccc2s1`, for which the GI50 in assay [1] is 2.26 µM; in assay [2] it was 1.29 µM; in assay [3] it was 2.08 µM; in assay [4], 2.08 µM; in assay [5], 0.911 µM; in assay [6], 2.11 µM. The GI50 is 2.61 µM in [7], 3.71 µM in [8], 1.33 µM in assay [9] and 1.88 µM in assay [10]. The TGI in assay [1] came to 5.5 µM; in [2], 2.71 µM; in assay [3], 6.27 µM; in [4], 4.56 µM; in assay [5], 9.61 µM; in [6], 6.64 µM. For the same molecule, the TGI in assay [7] came out at 7 µM; in assay [8], 17 µM; in [9], 7.16 µM; in assay [10] it was 7.81 µM.
For `CCCC(=O)Oc1ccc(/C(=C(\C)c2ccc(Cl)cc2)c2ccc(OCCN(CC)CC)cc2)cc1`, the GI50 in [1] was 1.95 µM; in [2] it was 1.55 µM; in assay [3], 3.39 µM; in assay [4], 2.81 µM; in assay [5], 4.18 µM; in [6], 4.25 µM. Moreover, the GI50 was 2.23 µM in assay [7], 8.8 µM in assay [8], 1.43 µM in assay [9] and 2.08 µM in assay [10]. In addition, the TGI in assay [1] is 4.06 µM; in [2] it was 3.21 µM; in assay [3], 11.9 µM; in assay [4], 7.29 µM; in [5], 15.5 µM; in assay [6] it was 16.5 µM. The TGI in assay [7] was 5.52 µM; in assay [8], 25 µM; in [9] it was 3.11 µM; in assay [10] it was 5.09 µM.
Turning to `COc1ccc(-n2nc(C)c3c(Nc4ccc(NC(=O)Nc5cccc(C(F)(F)F)c5)cc4)ncnc32)cc1`, the GI50 was 1.08 µM in [1]; 1.62 µM in assay [2]; 1.6 µM in assay [3]; 1.95 µM in assay [4]; 2.3 µM in assay [5]; 1.81 µM in assay [6]. In addition, the GI50 in assay [7] is 2.31 µM; in [8], 1.84 µM; in assay [9], 1.51 µM; in [10], 2.18 µM. Besides, the TGI in assay [1] was determined as 2.35 µM; in assay [2] it was 3.46 µM; in assay [3], 3.43 µM; in [4], 4.65 µM; in [5], 8.76 µM; in [6] it was 4.72 µM. Further, the TGI in assay [7] was determined as 5.51 µM; in [8], 4.2 µM; in assay [9], 2.86 µM; in assay [10], 7.22 µM.
Take `N#CC1=C(N)NC(=O)C(C#N)C12Nc1ccccc1S2` (stereo not drawn): the GI50 in assay [1] is more than 100 µM; in assay [2], 59.4 µM; in assay [3], more than 100 µM; in assay [4], 90.5 µM; in assay [5], more than 100 µM; in [6], 94.9 µM. Further, the GI50 in assay [7] is 91.6 µM; in [8] it was 41.3 µM; in assay [9] it was more than 100 µM; in [10], 48.8 µM. Moreover, the TGI in assay [1], in assay [2], in assay [3], in assay [4], in assay [5] and in [6] was more than 100 µM each time. Besides, the TGI in [7], in assay [8], in assay [9] and in [10] was more than 100 µM throughout.
With `CCN(Cc1cc(Cl)cc(C)c1O)Cc1c(O)ccc2ccccc12`, the TGI in assay [1] was found to be 31.7 µM; in assay [2] it was 33.1 µM; in assay [3], 31.5 µM; in assay [4] it was 40.9 µM; in assay [5] it was 42.5 µM; in assay [6] it was 32 µM. Also, the TGI in [7] amounted to 34 µM; in [8], 41 µM; in assay [9], 30.4 µM; in assay [10] it was 65.4 µM.
`O=C(c1ccc(Cl)cc1Cl)N1CCN(C(=O)c2ccc(Cl)cc2Cl)C1=S`: the GI50 in assay [1] is 17.8 µM; in assay [2], 23.5 µM; in assay [3] it was 21.3 µM; in assay [4], 24.9 µM; in assay [5], 19.5 µM; in assay [6], 24.8 µM. The GI50 in assay [7] is 16.6 µM; in assay [8], 40.9 µM; in assay [10], 31.4 µM. The TGI in [1] was 35.3 µM; in assay [2], 57.5 µM; in [3] it was 45.7 µM; in assay [4] it was 65.2 µM; in assay [5] it was 38.5 µM; in assay [6], 74.3 µM. The concentration for total growth inhibition (TGI) in [7] is 34.1 µM; in assay [8], 60.1 µM; in [10] it was more than 100 µM.
As to `CC(=O)CC[N+](C)(C)C`, the TGI in assay [1] was 59.9 µM; in [2], 54.4 µM; in [3], 26.5 µM; in assay [4], more than 36.9 µM; in assay [5], 13.7 µM; in assay [6] it was more than 76.9 µM. Also, the TGI in assay [7] was 14 µM; in assay [8], 88.2 µM; in assay [9], 67.8 µM; in [10], 13.5 µM.
Consider `Nc1c(C(=O)c2cccc(-c3cccnc3)c2)cnn1-c1ccc(F)cc1`, for which the GI50 in [1] was more than 25 µM; in assay [2], more than 25 µM; in [3], more than 25 µM; in [4] it was more than 25 µM; in assay [5] it was more than 25 µM; in assay [6], more than 20.5 µM. The GI50 is more than 25 µM in [7], more than 16.1 µM in assay [8], more than 25 µM in [9] and more than 25 µM in assay [10]. Further, the TGI in assay [1], in [2], in assay [3], in [4], in assay [5] and in assay [6] was more than 25 µM in each case. The TGI in assay [7], in [8], in assay [9] and in [10] was more than 25 µM throughout.
For the molecule `O=[N+]([O-])c1ccccc1/C=N\NC(=S)N/N=C/c1ccccc1[N+](=O)[O-]`, the GI50 was 4.9 µM in assay [1]; 3.78 µM in assay [2]; 7.53 µM in [3]; 6.71 µM in [4]; 4.19 µM in [5]; 2.66 µM in assay [6]. Further, the GI50 in assay [7] is 3.59 µM; in assay [8], 75.4 µM; in [9], 5.66 µM; in assay [10], 3.43 µM. The TGI in assay [1], in assay [2], in assay [3], in [4], in assay [5] and in assay [6] was more than 100 µM in each case. Besides, the TGI is more than 100 µM in [7], more than 100 µM in [8], 87.3 µM in assay [9] and more than 100 µM in assay [10].
For `CCc1nc(N)nc(N)c1C#CC(C)c1ccc(-c2ccncc2)cc1Cl` (stereo not drawn), the GI50 in assay [1] was 0.0108 µM and 0.028 µM; in assay [2], less than 0.005 µM; in assay [3], 0.00775 µM and 0.0304 µM; in assay [4], 0.0394 µM and 0.0796 µM; in assay [5] it was 0.0143 µM and 0.0367 µM; in assay [6] it was 0.0096 µM and 0.0366 µM. The GI50 was 0.0226 µM and 0.0298 µM in [7]; 0.264 µM and 0.86 µM in [8]; 0.0227 µM and 0.073 µM in assay [9]; less than 0.005 µM in assay [10]. The TGI was 5.1 µM and 11.6 µM in assay [1]; 2.77 µM and 13 µM in assay [2]; 4.57 µM and 13.7 µM in [3]; 6.69 µM and 15.2 µM in [4]; 5.48 µM and 14.5 µM in assay [5]; 5.11 µM and 9.3 µM in assay [6]. Also, the TGI was 1.75 µM and 2.61 µM in [7]; 6.56 µM and 28.3 µM in assay [8]; 1.47 µM and 13.5 µM in assay [9]; 28.5 µM and 15.2 µM in [10].
Take `COC(=O)NC1(NC(=O)OC)NC(=O)c2ccccc2N1`: the TGI in assay [2], in assay [3], in assay [4], in assay [5], in [6] and in assay [7] was more than 100 µM in each case. In addition, the TGI in assay [8], in assay [9] and in [10] was more than 100 µM throughout.
Consider `COc1ccc(-c2cn(C)c3c2-n2cccc2C3=O)cc1O`, for which the GI50 in [1] was 8.61 µM; in [2] it was 11.1 µM; in assay [3], 5.05 µM; in assay [5], 3.66 µM; in [6], 3.39 µM; in assay [7] it was 3.48 µM. The results for the GI50 in [8], in assay [9] and in assay [10] were 6.33 µM, 16.1 µM and 4.3 µM, respectively. Moreover, the TGI is 29.8 µM in [1]; 26.5 µM in assay [2]; 22.5 µM in assay [3]; 25.4 µM in [5]; 25.3 µM in [6]; more than 100 µM in [7]. Also, the results for the TGI in [8], in assay [9] and in assay [10] were 39.7 µM, more than 100 µM and more than 100 µM, respectively.
In the case of `CC(C)(C)OC(=O)NCCCCCCCCCn1c2c(c3ccccc3c1=O)C(=O)c1ccccc1-2`, the GI50 in assay [1] is 22 µM; in assay [3], 27 µM; in assay [4], 28.2 µM; in [5] it was more than 100 µM; in [6], 43.5 µM; in assay [7], more than 100 µM. Further, the GI50 in assay [8] was 41 µM; in assay [9], more than 100 µM; in [10], more than 100 µM. Also, the TGI in assay [1], in assay [3], in [4], in assay [5], in [6] and in assay [7] was more than 100 µM in each case. In addition, the TGI in assay [8], in assay [9] and in [10] was more than 100 µM in each case.
